Experimental data published in patent publication US20230271770A1, “Anti-Viral Pharmaceutical Formulations Administered Via Devices for Lung Targeted Delivery” (priority 2020, published 2023).

Legend:
[1] = Estimated HCQ concentration in alveolar fluid (oral tablets, inhalation); set-up: species or system human
Experimental: The HCQ molecules in the plasma can penetrate capillaries outside the alveolar membrane to reach the alveolar lining fluid (“ALF”).
A similar analysis was performed for HCQ administered by inhalation.

[2] = In-line Cascade Impactor (Andersen) evaluation, MDI actuator through elbow connection and ventilator tubing; type: physicochemical; set-up: Delivered <1.1 mcm / Delivered <4.7 mcm: unit not given here; conditions: 5% EtOH; for Delivered <4.7 mcm: Plate 3~5
Experimental: An example of a ventilator device, for example ventilator device 1700A, was tested and compared to a self-administrable, handheld MDI to determine the target site delivery efficiency in the ventilator circuit as compared to the MDI delivery efficiency without the ventilator circuit (e.g. no elbow connector or ventilator tubing).
Prime HCQ valve by discharging a predetermined number of actuations to waste. Discharge 10 actuations with actuator H004B-a into the cascade impaction sampling apparatus through an elbow connection w/inner channel and an in-line tubing (55 cm long).
Prime HCQ valve by discharging a predetermined number of actuations to waste. Discharge 10 actuations with actuator H004B-c into the cascade impaction sampling apparatus through an elbow connection with an inner channel and an in-line tubing (55 cm long).
Prime HCQ valve by discharging a predetermined number of actuations to waste. […]

[3] = set-up: species or system mice; conditions: mouse, in vivo, 10 min
Experimental: Mice can breathe the aerosol of drug products. A breathing tank is used for mice to breathe the aerosol of the drug product, such as HCQ. The drug product is administered through the specially designed stainless steel breathing tank 1800, for example as shown in FIG. 18.
The exposure tank size is designed such that the total breathing volume of all eight mice during a 10-minute breathing treatment (1.8 L) is less than 10% of the tank size (21.5 L). The internal wall of the tank is electrically polished to minimize its adsorption of the study drug. Eight mice were mounted to the tank with four mice on each side using small animal restraints. At the start of each treatment session, an effective amount of the drug was administered into pre-cleaned tank. A stirring fan installed inside the tank was set to promote circulation of the pharmaceutical agent. Specifically, the fan was set at 400 RPM in this study and turned on before the pharmaceutical agent was administered. Thirty seconds after the last spray (t=0 minute), eight mice were mounted to the inhalation chamber to breathe the air from inside the breathing tank for 10 minutes, and then were taken off the breathing tank. Samples from the mice were taken, starting immediately after removal from the tank, to perform pharmacokinetic studies. […]

[4] = HCQ particles typically inhaled to treat asthma; cited from earlier work
[5] = human, in vivo, po; cited from earlier work

For CCN(CCO)CCCC(C)Nc1ccnc2cc(Cl)ccc12 (centres unmarked) [HCQ, hydroxychloroquine], the “estimated concentration of HCQ in alveolar fluid” value (“estimated concentration of HCQ” below) ([1]; after administration of HCQ by inhalation) was “up to 22 μM”, the “estimated concentration of HCQ” value ([1]; oral tablets, Day-1 (800 mg dose, after 2nd 400 mg dose)) was 0.45 µM and the “estimated concentration of HCQ” value ([1]; oral tablets, Day-1 after the 1st 400 mg dose) was 0.23 µM. For the same molecule, the “estimated concentration of HCQ” value ([1]; oral tablets, Day-2) was 0.67 µM, the “estimated concentration of HCQ” value ([1]; oral tablets, Day-5 (total dose of 2,400 mg)) was 1.3 µM and the “Delivery Rate” value ([2]; Alveoli, <1.1 mcm, in-Linc Tube (15 cm), HCQB-c, connection w/o inner channel, 200 mcg (#6)) was 34.2%. For the same molecule, the “Delivery Rate” value ([2]; Alveoli, <1.1 mcm, in-Line Tube (15 cm), HCQB-a, connection w/o inner channel, 200 mcg) was 32.2%, the “Delivery Rate” value ([2]; Alveoli, <1.1 mcm, in-Line Tube (15 cm), HCQB-b, connection w/o inner channel, 200 mcg) was 31.3% and the “Delivery Rate” value ([2]; Alveoli, <1.1 mcm, in-Line Tube (15 cm), HCQB-c, connection w/o inner channel, 200 mcg (#4)) was 43.3%. The “Delivery Rate” value ([2]; Alveoli, <1.1 mcm, in-Line Tube (15 cm), HCQB-d, connection w/o inner channel, Ave, 200 mcg) was 36.9%, the “Delivery Rate” value ([2]; Alveoli, <1.1 mcm, in-Line Tube (15 cm), HCQB-f, connection w/o inner channel, 200 mcg) was 23.2% and the “Delivery Rate” value ([2]; Alveoli, <1.1 mcm, in-Line Tube (15 cm), HCQB-g, connection w/inner channel, 200 mcg) was 34.0%. For the same molecule, the “Delivery Rate” value ([2]; Alveoli, <1.1 mcm, in-Line Tube (15 cm), HCQB-g, connection w/o inner channel, 200 mcg) was 31.5%, the “Delivery Rate” value ([2]; Alveoli, <1.1 mcm, in-Line Tube (15 cm), HCQB-h, connection w/ inner channel, 200 mcg) was 35.9% and the “Delivery Rate” value ([2]; Alveoli, <1.1 mcm, in-Line Tube (15 cm), HCQB-h, connection w/o inner channel, 200 mcg) was 31.1%. The “Delivery Rate” value ([2]; Alveoli, <1.1 mcm, in-Line Tube (15 cm), HCQB-i, connection w/inner channel, 200 mcg) was 27.5%, the “Delivery Rate” value ([2]; Alveoli, <1.1 mcm, in-Line Tube (15 cm), HCQB-i, connection w/o inner channel, 200 mcg) was 37.9% and the “Delivery Rate” value ([2]; Alveoli, <1.1 mcm, in-Line Tube (15 cm), HCQB-j, connection w/o inner channel, 200 mcg) was 29.1%. The “Delivery Rate” value ([2]; Alveoli, <1.1 mcm, in-Line Tube (55 cm), HCQB-a, connection w/inner channel, 200 mcg) was 19.3%, the “Delivery Rate” value ([2]; Alveoli, <1.1 mcm, in-Line Tube (55 cm), HCQB-b, connection w/inner channel, 200 mcg) was 26.9% and the “Delivery Rate” value ([2]; Alveoli, <1.1 mcm, in-Line Tube (55 cm), HCQB-c, connection w/inner channel, Ave, 200 mcg) was 37.9%. For the same molecule, the “Delivery Rate” value ([2]; Alveoli, <1.1 mcm, in-Line Tube (55 cm), HCQB-d, connection w/inner channel, 200 mcg) was 26.4%, the “Delivery Rate” value ([2]; Alveoli, <1.1 mcm, in-Line Tube (55 cm), HCQB-f, connection w/inner channel, Ave, 200 mcg) was 34.7% and the “Delivery Rate” value ([2]; Alveoli, <1.1 mcm, in-Line Tube (55 cm), HCQB-j, connection w/ inner channel, 200 mcg) was 30.3%. The “Delivered <1.1 mcm” value ([2]; Alveoli, in-Linc Tube (15 cm), HCQB-c, connection w/o inner channel, 200 mcg (#6)) was 68.4, the “Delivered <1.1 mcm” value ([2]; Alveoli, in-Line Tube (15 cm), HCQB-a, connection w/o inner channel, 200 mcg) was 64.4 and the “Delivered <1.1 mcm” value ([2]; Alveoli, in-Line Tube (15 cm), HCQB-b, connection w/o inner channel, 200 mcg) was 62.6. The “Delivered <1.1 mcm” value ([2]; Alveoli, in-Line Tube (15 cm), HCQB-c, connection w/o inner channel, 200 mcg (#4)) was 86.6, the “Delivered <1.1 mcm” value ([2]; Alveoli, in-Line Tube (15 cm), HCQB-d, connection w/o inner channel, Ave, 200 mcg) was 73.8 and the “Delivered <1.1 mcm” value ([2]; Alveoli, in-Line Tube (15 cm), HCQB-f, connection w/o inner channel, 200 mcg) was 46.3. For the same molecule, the “Delivered <1.1 mcm” value ([2]; Alveoli, in-Line Tube (15 cm), HCQB-g, connection w/inner channel, 200 mcg) was 68.0, the “Delivered <1.1 mcm” value ([2]; Alveoli, in-Line Tube (15 cm), HCQB-g, connection w/o inner channel, 200 mcg) was 63.0 and the “Delivered <1.1 mcm” value ([2]; Alveoli, in-Line Tube (15 cm), HCQB-h, connection w/ inner channel, 200 mcg) was 71.7. The “Delivered <1.1 mcm” value ([2]; Alveoli, in-Line Tube (15 cm), HCQB-h, connection w/o inner channel, 200 mcg) was 62.1, the “Delivered <1.1 mcm” value ([2]; Alveoli, in-Line Tube (15 cm), HCQB-i, connection w/inner channel, 200 mcg) was 55.0 and the “Delivered <1.1 mcm” value ([2]; Alveoli, in-Line Tube (15 cm), HCQB-i, connection w/o inner channel, 200 mcg) was 75.7. The “Delivered <1.1 mcm” value ([2]; Alveoli, in-Line Tube (15 cm), HCQB-j, connection w/o inner channel, 200 mcg) was 58.1, the “Delivered <1.1 mcm” value ([2]; Alveoli, in-Line Tube (55 cm), HCQB-a, connection w/inner channel, 200 mcg) was 38.5 and the “Delivered <1.1 mcm” value ([2]; Alveoli, in-Line Tube (55 cm), HCQB-b, connection w/inner channel, 200 mcg) was 53.8. The “Delivered <1.1 mcm” value ([2]; Alveoli, in-Line Tube (55 cm), HCQB-c, connection w/inner channel, Ave, 200 mcg) was 75.8, the “Delivered <1.1 mcm” value ([2]; Alveoli, in-Line Tube (55 cm), HCQB-d, connection w/inner channel, 200 mcg) was 52.8 and the “Delivered <1.1 mcm” value ([2]; Alveoli, in-Line Tube (55 cm), HCQB-f, connection w/inner channel, Ave, 200 mcg) was 69.4. For the same molecule, the “Delivered <1.1 mcm” value ([2]; Alveoli, in-Line Tube (55 cm), HCQB-j, connection w/ inner channel, 200 mcg) was 60.5, the “Delivery Rate” value ([2]; Plate 3~5, <4.7 mcm, in-Line Tube (15 cm), HCQB-g, connection w/inner channel, 200 mcg) was 30.5% and the “Delivery Rate” value ([2]; Plate 3~5, <4.7 mcm, in-Line Tube (15 cm), HCQB-h, connection w/inner channel, 200 mcg) was 25.8%. The “Delivery Rate” value ([2]; Plate 3~5, <4.7 mcm, in-Line Tube (15 cm), HCQB-i, connection w/inner channel, 200 mcg) was 22.8%, the “Delivery Rate” value ([2]; Plate 3~5, <4.7 mcm, in-Line Tube (55 cm), HCQB-a, connection w/inner channel, 200 mcg) was 13.3% and the “Delivery Rate” value ([2]; Plate 3~5, <4.7 mcm, in-Line Tube (55 cm), HCQB-b, connection w/inner channel, 200 mcg) was 21.3%. For the same molecule, the “Delivery Rate” value ([2]; Plate 3~5, <4.7 mcm, in-Line Tube (55 cm), HCQB-c, connection w/inner channel, 200 mcg) was 29.0%, the “Delivery Rate” value ([2]; Plate 3~5, <4.7 mcm, in-Line Tube (55 cm), HCQB-d, connection w/inner channel, 200 mcg) was 23.3% and the “Delivery Rate” value ([2]; Plate 3~5, <4.7 mcm, in-Line Tube (55 cm), HCQB-e, connection w/inner channel, 200 mcg) was 29.0%. The “Delivery Rate” value ([2]; Plate 3~5, <4.7 mcm, in-Line Tube (55 cm), HCQB-f, connection w/inner channel, 200 mcg) was 28.3%, the “Delivery Rate” value ([2]; Plate 3~5, <4.7 mcm, in-Line Tube (55 cm), HCQB-j, connection w/inner channel, 200 mcg) was 20.0% and the “Delivered <4.7 mcm” value ([2]; in-Line Tube (15 cm), HCQB-g, connection w/inner channel, 200 mcg) was 60.9. For the same molecule, the “Delivered <4.7 mcm” value ([2]; in-Line Tube (15 cm), HCQB-h, connection w/inner channel, 200 mcg) was 51.6, the “Delivered <4.7 mcm” value ([2]; in-Line Tube (15 cm), HCQB-i, connection w/inner channel, 200 mcg) was 45.5 and the “Delivered <4.7 mcm” value ([2]; in-Line Tube (55 cm), HCQB-a, connection w/inner channel, 200 mcg) was 26.5. For the same molecule, the “Delivered <4.7 mcm” value ([2]; in-Line Tube (55 cm), HCQB-b, connection w/inner channel, 200 mcg) was 42.6, the “Delivered <4.7 mcm” value ([2]; in-Line Tube (55 cm), HCQB-c, connection w/inner channel, 200 mcg) was 57.9 and the “Delivered <4.7 mcm” value ([2]; in-Line Tube (55 cm), HCQB-d, connection w/inner channel, 200 mcg) was 46.6. For the same molecule, the “Delivered <4.7 mcm” value ([2]; in-Line Tube (55 cm), HCQB-e, connection w/inner channel, 200 mcg) was 57.9, the “Delivered <4.7 mcm” value ([2]; in-Line Tube (55 cm), HCQB-f, connection w/inner channel, 200 mcg) was 56.5 and the “Delivered <4.7 mcm” value ([2]; in-Line Tube (55 cm), HCQB-j, connection w/inner channel, 200 mcg) was 39.9. For the same molecule, the “appearance of mice during and after treatment” value [3] was “appeared healthy, with no signs of distress”, the “mean HCQ particle size” value [4] was 3.2 μm and the BA [5] was 74%. For the same molecule, the “share of tablet dose distributed to red blood cells or other protein in blood” value [5] was “approximately 0.25%” and the “share of tablet dose not absorbed or initially metabolized in liver” value [5] was “approximately 26%”.
